Values of other authors in patent US20100247649A1, “PHARMACEUTICAL FORMULATIONS COMPRISING TELMISARTAN AND HYDROCHLOROTHIAZIDE” (DR. REDDY'S LABORATORIES LTD., priority 2007, published 2010).

Row | SMILES | Stability in alkaline conditions (alkaline conditions) | Aqueous solubility in the physiological pH range of the gastrointestinal tract (between pH 1 and 7) | Solubility in hydrochloric acid (hydrochloric acid) | Solubility in the pH range of 3 to 9 (pH range of 3 to 9) | Solubility in strong acids (strong acids (except hydrochloric acid)) | Solubility in strong bases (strong bases) | Solubility in water (water)
1 | NS(=O)(=O)c1cc2c(cc1Cl)NCNS2(=O)=O [Hydrochlorothiazide, 6-chloro-3,4-dihydro-2H-1,2,4-benzothiadiazine-7-sulfonamide 1,1-dioxide] | degrades |  |  |  |  |  | 
2 | CCCc1nc2c(C)cc(-c3nc4ccccc4n3C)cc2n1Cc1ccc(-c2ccccc2C(=O)O)cc1 [Telmisartan, 4′-[(1,4′-dimethyl-2′-propyl[2,6′-bi-1H-benzimidazol]-1′-yl)methyl]-[1,1′-biphenyl]-2-carboxylic acid] |  | very poor | insoluble | practically insoluble | sparingly soluble | soluble | practically insoluble
